Results from patent US20100119452A1, “SCREENING METHOD” (Takeda Pharmaceutical Company Limited, priority 2007, published 2010).

How the values were obtained:
androgen receptors = experiment: Reporter assay using LNCaP-hr cells (6k-PSA promoter, firefly luciferase); type: cell-based, human; conditions: LNCaP-hr cells with PSA promoter-luciferase, 24 hours after addition
Method: As a negative control compound, conventional AR antagonist, bicalutamide was used. 6k-PSA promoter and firefly luciferase gene were used as a PSA promoter and a reporter gene, respectively.
LNCaP-hr cells transfected with a reporter gene linked to a PSA promoter were plated on 96-well plates at a density of 50,000 cells/100 μL/well, to which the test compounds were added after the cells were cultured for 8 hours. The reporter activity was determined 24 hours after the addition of the test compounds. The suppressing activity of the test compounds on the reporter gene was calculated based on the assumption that the reporter activity in the cells without the addition of the test compounds (control group) was 100% and the reporter activity of the non-treated LNCaP-hr cells without introduction of the reporter gene was 0%.

LNCaP-hr cells = experiment: Antitumor test using nude mice transplanted with LNCaP-hr cells; type: in vivo; conditions: castrated nude mice, LNCaP-hr subcutaneous, 15 mg/kg orally twice daily for three weeks; for T/C (tumor volume): control 100%, start of administration 0%
Method: LNCaP-hr cells were suspended in Matrigel, and 5×10^6 cells were transplanted subcutaneously into the flank of castrated nude mice. When tumor volume reached approximately 100 mm^3, the animals were grouped based on the tumor volume, and administered orally with 15 mg/kg body weight of the compound twice daily for three weeks. The tumor volume was calculated based on the assumption that the volume of the control group was 100% and the volume of the treated group at the start of the administration was 0% (T/C %).

Compound | Suppressing activity on the reporter gene (androgen receptors) | Antitumor activity (LNCaP-hr cells) | T/C (tumor volume) (LNCaP-hr cells)
Cc1cc(-c2ccc(C#N)cc2)c(C)n1Cc1cc(C(F)(F)F)n[nH]1 [Compound 6] | Concentration-dependent suppressing activity on the reporter gene was observed | antitumor activity was observed | T/C = −3%
Cc1cc(-c2ccc(C#N)cc2)c(C#N)n1Cc1cc(C(F)(F)F)n[nH]1 [Compound 8] | Concentration-dependent suppressing activity on the reporter gene was observed | antitumor activity was observed | T/C = −5%
Cc1cc(-c2ccc(C#N)cc2)c(C)n1Cc1cn[nH]c1C(C)(C)O [Compound 9] | Concentration-dependent suppressing activity on the reporter gene was observed | antitumor activity was observed | T/C = 24%
